In patent publication US6509341B1, “Carboxylic acid derivatives, carrying amido side-chains; production and use as endothelin receptor antagonists” (Abbott Laboratories, priority 1997, dated 2003):

How the values were obtained:
human ETB receptor = biological target: T1, human ETB receptor (Homo sapiens, UniProt P24530); experiment: ETB receptor binding assay ([125I]-ET3, CHO cell membranes); conditions: cloned human ETB receptor, 25 pM [125I]-ET3, 25° C.
T1 construct: expressed in transfected cells; host or cells: CHO cells (membrane preparation)
T1 sequence (P24530 27-442): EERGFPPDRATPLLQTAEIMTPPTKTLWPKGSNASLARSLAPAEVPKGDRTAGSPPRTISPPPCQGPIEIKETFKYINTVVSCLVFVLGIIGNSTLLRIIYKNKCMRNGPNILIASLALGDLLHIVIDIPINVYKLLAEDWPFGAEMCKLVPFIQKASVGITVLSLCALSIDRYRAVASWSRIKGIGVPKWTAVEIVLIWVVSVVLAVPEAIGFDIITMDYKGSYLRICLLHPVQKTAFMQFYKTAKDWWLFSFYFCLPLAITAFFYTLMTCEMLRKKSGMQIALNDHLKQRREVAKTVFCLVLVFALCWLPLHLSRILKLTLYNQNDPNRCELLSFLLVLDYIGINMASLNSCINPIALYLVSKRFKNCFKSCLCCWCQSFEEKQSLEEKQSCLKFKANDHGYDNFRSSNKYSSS
Procedure: (§1) Cloned human ETA or ETB receptor-expressing CHO cells were employed for binding studies.
(§2) The ETA or ETB receptor-expressing CHO cells were grown in DmeM NUT MIX F12-medium (Gibco, No. 21331-020) with 10% fetal calf serum (PAA Laboratories GmbH, Linz, No. A15-022), 1 mM glutamine (Gibco No. 25030-024), 100 U/ml penicillin and 100 μg/ml streptomycin (Gibco [sic], Sigma No. P-0781). After 48 hours, the cells were washed with PBS and incubated with 0.05% trypsin-containing PBS at 37° C. for 5 minutes. This was followed by neutralization with medium, and the cells were collected by centrifugation at 300×g.
(§3) For the membrane preparation, the cells were adjusted to a concentration of 10^8 cells/ml of buffer (50 mM tris.HCL [sic] buffer, pH 7.4) and then disintegrated by ultrasound Branson Sonifier 250, 40-70 seconds/constant/output [sic] 20).
(§4) For the ETA and ETB receptor binding assay, the membranes were suspended in incubation buffer (50 mM tris-HCl, pH 7.4 with 5 mM MnCl2, 40 mg/ml Bacitracin and 0.2% BSA) in a concentration of 50 μg of protein per assay mixture and incubated with 25 pM [125I]-ET1 [sic] (ETA receptor assay) or 25 pM [125I]-ET3 [sic] (ETB receptor assay) at 25° C. in the presence and absence of test substance. The nonspecific binding was determined with 10^−7 M ET1. After 30 min, filtration through GF/B glass fiber filters (Whatman, England) in a Skatron cell harvester (Skatron, Lier, Norway) was carried out to separate free and bound radioligand, and the filters was washed with ice-cold tris-HCl buffer, pH 7.4 with 0.2% BSA. The radioactivity collected on the filters was quantified using a Packard 2200 CA liquid scintillation counter.
(§5) Receptor binding data were measured by the binding assay described above for the compounds listed below.

human ETA receptor = biological target: T2, human ETA receptor (Homo sapiens, UniProt P25101); experiment: ETA receptor binding assay ([125I]-ET1, CHO cell membranes); conditions: cloned human ETA receptor, 25 pM [125I]-ET1, 25° C.
T2 construct: expressed in transfected cells; host or cells: CHO cells (membrane preparation)
T2 sequence (P25101 21-427): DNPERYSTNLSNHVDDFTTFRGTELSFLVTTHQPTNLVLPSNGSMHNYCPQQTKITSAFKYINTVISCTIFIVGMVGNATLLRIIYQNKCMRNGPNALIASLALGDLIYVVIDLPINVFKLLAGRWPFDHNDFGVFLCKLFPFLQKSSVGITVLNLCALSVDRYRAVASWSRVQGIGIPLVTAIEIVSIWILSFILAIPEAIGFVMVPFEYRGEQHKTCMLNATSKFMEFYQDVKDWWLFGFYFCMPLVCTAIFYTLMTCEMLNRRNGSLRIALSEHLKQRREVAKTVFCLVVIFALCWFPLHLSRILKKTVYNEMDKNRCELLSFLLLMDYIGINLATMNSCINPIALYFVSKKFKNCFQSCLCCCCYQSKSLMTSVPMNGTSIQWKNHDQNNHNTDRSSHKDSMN
Procedure: as §1, §2, §3, §4, §5

In the case of `Cc1cc(C)nc(OC(C(=O)O)C(OCC(=O)N(C)c2ccccc2)(c2ccccc2)c2ccccc2)n1` (centres unmarked) [Compound I-109, 2-(4,6-Dimethyl-2-pyrimidinyloxy)-3-(N-methyl-N-phenylcarbamoylmethoxy)-3,3-diphenylpropionic acid], the Ki (human ETB receptor) is reported as 142 nM and the Ki (human ETA receptor) is reported as 0.4 nM.
In the case of `COc1cc(C)nc(OC(C(=O)O)C(OCC(=O)N(C)c2ccccc2)(c2ccccc2)c2ccccc2)n1` (centres unmarked) [Compound I-111, 2-(4-methyl-6-methoxy-2-pyrimidinyloxy)-3-(N-methyl-N-phenylcarbamoylmethoxy)-3,3-diphenylpropionic acid], the Ki (human ETB receptor) is reported as 109 nM and the Ki (human ETA receptor) is reported as 0.3 nM.
With `Cc1cc(C)nc(OC(C(=O)O)C(OCC(=O)N2CCc3ccccc3C2)(c2ccccc2)c2ccccc2)n1` (centres unmarked) [Compound I-307, 2-(4,6-Dimethyl-2-pyrimidinyloxy)-3-(2-oxo-2-(1,2,3,4-tetrahydroisoquinolin-2-yl)ethoxy)-3,3-diphenylpropionic acid] the Ki (human ETB receptor) was 10 nM and the Ki (human ETA receptor) was 1.6 nM.
With `COc1cc(C)nc(OC(C(=O)O)C(OCC(=O)N2CCc3ccccc3C2)(c2ccccc2)c2ccccc2)n1` (centres unmarked) [Compound I-309, 2-(4-Methyl-6-methoxy-2-pyrimidinyloxy)-3-(2-oxo-2-(1,2,3,4-tetrahydroisoquinolin-2-yl)ethoxy)-3,3-diphenylpropionic acid] the Ki (human ETB receptor) was 12 nM and the Ki (human ETA receptor) was 1 nM.
With `CCCCN(CCCC)C(=O)COC(c1ccccc1)(c1ccccc1)C(Oc1nc(C)cc(C)n1)C(=O)O` (centres unmarked) [Compound I-347, 2-(4,6-Dimethyl-2-pyrimidinyloxy)-3-(N,N-dibutylcarbamoylmethoxy)-3,3-diphenylpropionic acid] the Ki (human ETB receptor) was 155 nM and the Ki (human ETA receptor) was 3.8 nM.
Compound `CCCCN(CCCC)C(=O)COC(c1ccccc1)(c1ccccc1)C(Oc1nc(C)cc(OC)n1)C(=O)O` (centres unmarked) [Compound I-349, 2-(4-Methyl-6-methoxy-2-pyrimidinyloxy)-3-(N,N-dibutylcarbamoylmethoxy)-3,3-diphenylpropionic acid] has a Ki (human ETB receptor) of 142 nM and a Ki (human ETA receptor) of 3 nM.
In the case of `COc1cc2c(cc1OC)CN(C(=O)COC(c1ccccc1)(c1ccccc1)C(Oc1nc(C)cc(C)n1)C(=O)O)CC2` (centres unmarked) [Example 34, 2-(4,6-Dimethylpyrimidin-2-yloxy)-3-(2-oxo-2-(6,7-dimethoxy-1,2,3,4-tetrahydroisoquinolin-2-yl)ethoxy)-3,3-diphenylpropionic acid], the melting point is reported as 145 to 148 °C.
With `Cc1cc(C)nc(OC(C(=O)O)C(OCC(=O)N2Cc3ccccc3C(C)(C)C2)(c2ccccc2)c2ccccc2)n1` (centres unmarked) [Example 35, 2-(4,6-Dimethylpyrimidin-2-yloxy)-3-(2-oxo-2-(4,4-dimethyl-1,2,3,4-tetrahydroisoquinolin-2-yl)ethoxy)-3,3-diphenylpropionic acid] the melting point was 185 to 187 °C.
